Measured values published in the NIST ThermoML archive (doi:10.1021/je100237h).

Conditions: Liquid; for viscosity: 101.33 kPa, Concentric cylinders viscometry; for mass density: Vibrating tube method

COC(=O)CCCCC(=O)OC [dimethyl 1,6-hexanedioate]
Conditions | viscosity [mPa·s]
283.15 K | 4.39
288.15 K | 3.82
293.15 K | 3.36
298.15 K | 2.98
303.15 K | 2.67
308.15 K | 2.4
313.15 K | 2.18
318.15 K | 1.99
323.15 K | 1.82
328.15 K | 1.68
333.15 K | 1.55
338.15 K | 1.44
343.15 K | 1.34

mass density [kg/m3]
Conditions | 293.15 K | 303.15 K | 313.15 K | 323.15 K | 333.15 K | 343.15 K
100 kPa | 1061.5 | 1051.8 | 1042.1 | 1031.6 | 1022.6 | 1012.3
10000 kPa | 1067.7 | 1058 | 1048.9 | 1038.9 | 1029.6 | 1020.4
20000 kPa | 1073.6 | 1064.4 | 1055.6 | 1045.7 | 1036.8 | 1028.1
30000 kPa | 1079.2 | 1070.5 | 1061.8 | 1052.1 | 1043.6 | 1034.8
40000 kPa | 1084.5 | 1076 | 1067.5 | 1058.3 | 1049.9 | 1041.3
50000 kPa | 1089.6 | 1081.5 | 1073.2 | 1063.9 | 1056 | 1047.6
60000 kPa | 1094.7 | 1086.7 | 1078.6 | 1069.1 | 1061.5 | 1053.5
70000 kPa | 1099.5 | 1091.5 | 1083.7 | 1074.4 | 1066.9 | 1058.6
80000 kPa | 1104.2 | 1096.1 | 1088.7 | 1079.3 | 1072 | 1064.2
90000 kPa | 1108.5 | 1100.6 | 1093.2 | 1084.2 | 1076.9 | 1069.3
100000 kPa | 1112.8 | 1104.7 | 1097.2 | 1088.9 | 1082 | 1074.1
110000 kPa | – | 1108.9 | 1101.5 | 1093.3 | 1086.8 | 1079
120000 kPa | – | 1113.1 | 1105.6 | 1097.9 | 1091.1 | 1083.9
130000 kPa | – | 1117 | 1109.8 | 1102.2 | 1095.5 | –
140000 kPa | – | 1120.9 | 1113.8 | 1106.2 | 1099.8 | –
